Test results from PubChem BioAssay (NCI).
Values joined by “and” are separate entries in the source; they are usually repeats but may differ in a detail not shown here. Equal values may be shown once.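 All cell lines were grown in 96-well plates and treated with compound for 48 hours. At the GI50, growth is halved. TGI denotes the concentration required for complete inhibition of growth.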

Experiments:
Experiment in all cases: growth of human tumour cells (NCI), 48 h
[1] = tested on: A498 renal
[2] = tested on: HOP-92 NSCLC
[3] = tested on: MCF7 breast
[4] = tested on: NCI-H23 lung
[5] = tested on: OVCAR-5 ovarian
[6] = tested on: OVCAR-8 ovarian
[7] = tested on: SK-MEL-2 melanoma
[8] = tested on: SR leukemia
[9] = tested on: TK-10 renal
[10] = tested on: UACC-257 melanoma

`Cc1cc(C)c2c(=O)cc(-c3ccc(F)cc3)[nH]c2n1` showed a TGI [1] of 99.5 µM, a TGI [2] of 90.3 µM and a TGI [3] of over 100 µM. It also gave a TGI [4] of over 100 µM, a TGI [5] of over 100 µM and a TGI [6] of over 100 µM. It also gave a TGI [7] of over 100 µM, a TGI [8] of 67.7 µM and a TGI [9] of over 100 µM. For the same compound, the TGI [10] was over 100 µM.
Work on `OC1CCC(COC(c2ccccc2)(c2ccccc2)c2ccccc2)O1` (configuration not stated) yielded a TGI [1] of 35.8 µM, a TGI [3] of 33.3 µM and a TGI [4] of 35.4 µM. It also gave a TGI [5] of 45.2 µM, a TGI [6] of 35.8 µM and a TGI [7] of 42.6 µM. It also gave a TGI [8] of over 10 µM, a TGI [9] of over 10 µM and a TGI [10] of 34.1 µM.
`CC[C@@]1(O)C(=O)OCc2c1cc1n(c2=O)Cc2cc3c(OC)cccc3nc2-1` was tested, and the GI50 [1] was 0.00301 µM, the GI50 [2] was 5.99e-05 µM and the TGI [2] was 0.685 µM. For the same compound, the TGI [3] was over 100 µM, the GI50 [4] was 0.0069 µM and the TGI [4] was 0.0775 µM and 0.505 µM. It also gave a GI50 [5] of 0.0386 µM, a TGI [5] of 7.13 µM and a TGI [6] of 1.9 µM. The TGI [7] was 2.6 µM, the TGI [8] was 1.35 µM and the TGI [9] was 50 µM. The GI50 [10] was 0.0646 µM and the TGI [10] was 4.25 µM.
`N#C/C(=C\c1ccc([N+](=O)[O-])cc1)n1nnc2cc(F)c(F)cc21` showed a GI50 [1] of 1.9 µM, a TGI [1] of 3.71 µM and a GI50 [3] of 1.29 µM. For the same compound, the TGI [3] was 3.4 µM, the GI50 [4] was 1.87 µM and the TGI [4] was 4.08 µM. For the same compound, the GI50 [5] was 1.77 µM, the TGI [5] was 3.41 µM and the GI50 [6] was 2.14 µM. It also gave a TGI [6] of 6.17 µM, a GI50 [7] of 2.32 µM and a TGI [7] of 5.58 µM. For the same compound, the GI50 [8] was 1.08 µM, the TGI [8] was over 100 µM and the GI50 [9] was 1.89 µM. For the same compound, the TGI [9] was 3.33 µM, the GI50 [10] was 2.17 µM and the TGI [10] was 5.65 µM.
Work on `CC(=O)NS(=O)(=O)c1ccc(-n2nc(-c3ccccc3)cc2-c2cc(O)ccc2O)cc1` yielded a GI50 [2] of over 100 µM, a TGI [2] of over 100 µM and a GI50 [3] of over 100 µM. The TGI [3] was over 100 µM, the GI50 [4] was over 100 µM and the TGI [4] was over 100 µM. For the same compound, the GI50 [5] was over 100 µM, the TGI [5] was over 100 µM and the GI50 [6] was over 100 µM. It also gave a TGI [6] of over 100 µM, a GI50 [7] of over 100 µM and a TGI [7] of over 100 µM. It also gave a GI50 [8] of over 100 µM, a TGI [8] of over 100 µM and a GI50 [9] of 10.9 µM. For the same compound, the TGI [9] was over 100 µM, the GI50 [10] was over 100 µM and the TGI [10] was over 100 µM.
`CCOC(=O)Nc1ccc2c3c(cccc13)-c1ccccc1-2` gave a GI50 [1] of 4.68 µM, a TGI [1] of over 100 µM and a GI50 [2] of over 100 µM. The TGI [2] was over 100 µM, the GI50 [3] was 1.64 µM and the TGI [3] was over 100 µM. It also gave a GI50 [4] of 98.1 µM, a TGI [4] of over 100 µM and a GI50 [5] of over 100 µM. It also gave a TGI [5] of over 100 µM, a GI50 [6] of over 100 µM and a TGI [6] of over 100 µM. The GI50 [7] was over 100 µM, the TGI [7] was over 100 µM and the GI50 [8] was 4.36 µM. It also gave a TGI [8] of over 100 µM, a GI50 [9] of over 100 µM and a TGI [9] of over 100 µM. The GI50 [10] was over 100 µM and the TGI [10] was over 100 µM.
`C#CCOCCCC(=O)O` was tested, and the TGI [1] was over 100 µM, the TGI [2] was over 100 µM and the TGI [3] was over 100 µM. It also gave a TGI [4] of over 100 µM, a TGI [5] of over 100 µM and a TGI [6] of over 100 µM. For the same compound, the TGI [7] was over 100 µM, the TGI [8] was over 100 µM and the TGI [9] was over 100 µM. The TGI [10] was over 100 µM.
For `CCOC(=O)Nc1nc(-c2ccccc2)c(C)s1`, the TGI [1] was over 100 µM, the TGI [2] was 90.5 µM and the TGI [3] was over 100 µM. It also gave a TGI [4] of over 100 µM, a TGI [5] of over 100 µM and a TGI [6] of over 100 µM. It also gave a TGI [7] of over 100 µM, a TGI [8] of over 100 µM and a TGI [9] of over 100 µM. It also gave a TGI [10] of over 100 µM.
With `O=C(NCCNc1nccc(-c2c(-c3ccc(F)cc3)nc3sccn23)n1)Nc1cccc(C(F)(F)F)c1` the GI50 [1] was 10.7 µM, the TGI [1] was 23.8 µM and the GI50 [2] was 4.59 µM. It also gave a TGI [2] of 33.3 µM, a GI50 [3] of 3.73 µM and a TGI [3] of 19.5 µM. The GI50 [4] was 8.73 µM, the TGI [4] was 26.4 µM and the GI50 [5] was 18.5 µM. For the same compound, the TGI [5] was 54.4 µM, the GI50 [6] was 3.76 µM and the TGI [6] was 27.4 µM. For the same compound, the GI50 [7] was 3.02 µM, the TGI [7] was 8.8 µM and the GI50 [8] was 5.4 µM. For the same compound, the TGI [8] was 55.3 µM, the GI50 [9] was 10.5 µM and the TGI [9] was 36.2 µM. For the same compound, the GI50 [10] was 10.6 µM and the TGI [10] was 26.1 µM.
With `Nc1ncnc2occ(-c3ccc(NC(=O)Nc4cc(C(F)(F)F)ccc4F)cc3)c12` the GI50 [1] was 1.09 µM and 0.506 µM, the TGI [1] was 6.14 µM and 2.69 µM and the GI50 [2] was 3.98 µM and 3.4 µM. The TGI [2] was 12.1 µM and 11.5 µM, the GI50 [3] was 2.37 µM and 1.16 µM and the TGI [3] was 17.7 µM and 12.6 µM. For the same compound, the GI50 [4] was 4.62 µM and 2.09 µM, the TGI [4] was 12.9 µM and 6.86 µM and the GI50 [5] was 6.44 µM and 5.95 µM. For the same compound, the TGI [5] was 16.2 µM and 13.7 µM, the GI50 [6] was 4.76 µM and 1.95 µM and the TGI [6] was 16.6 µM and 5.76 µM. For the same compound, the GI50 [7] was 6.25 µM and 3.36 µM, the TGI [7] was 12.3 µM and 8.36 µM and the GI50 [8] was 2.15 µM and 1.05 µM. For the same compound, the TGI [8] was 11.7 µM and > 25 µM, the GI50 [9] was 4.78 µM and 1.6 µM and the TGI [9] was 14.3 µM and 8.76 µM. The GI50 [10] was 6.19 µM and 4.11 µM and the TGI [10] was 15.6 µM and 8.64 µM.
`CSc1nc(SC)c2c(C)cn(Cc3ccccc3)c2n1` gave a TGI [1] of over 100 µM, a TGI [2] of over 100 µM and a TGI [3] of over 100 µM. For the same compound, the TGI [4] was over 100 µM, the TGI [5] was over 100 µM and the TGI [6] was over 100 µM. For the same compound, the TGI [7] was over 100 µM, the TGI [8] was over 100 µM and the TGI [9] was over 100 µM.
In the case of `CCCC(c1cc(C(C)(C)C)c(O)cc1C)c1cc(C(C)(C)C)c(O)cc1C`, the TGI [1] is reported as 4.51 µM, the TGI [2] is reported as 22.5 µM and the TGI [3] is reported as 4.85 µM. For the same compound, the TGI [4] was 6.24 µM, the TGI [5] was 4.54 µM and the TGI [6] was 12.9 µM. It also gave a TGI [7] of 7.22 µM, a TGI [8] of 5.33 µM and a TGI [9] of 9.55 µM. For the same compound, the TGI [10] was 5.69 µM.
`O=P1(O)c2ccccc2CSCc2ccccc21` was tested, and the TGI [1] was over 100 µM, the TGI [2] was over 100 µM and the TGI [3] was over 100 µM. For the same compound, the TGI [4] was over 100 µM, the TGI [5] was over 100 µM and the TGI [6] was over 100 µM. It also gave a TGI [7] of over 100 µM, a TGI [8] of over 100 µM and a TGI [9] of over 100 µM. It also gave a TGI [10] of over 100 µM.
For `Cc1cc(S(=O)(=O)Nc2n[nH]c(-c3ccc(Cl)cc3)c2C#N)c(S)cc1Cl`, the GI50 [2] was over 100 µM, the TGI [2] was over 100 µM and the GI50 [3] was over 100 µM. It also gave a TGI [3] of over 100 µM, a GI50 [4] of over 100 µM and a TGI [4] of over 100 µM. The GI50 [5] was over 100 µM, the TGI [5] was over 100 µM and the GI50 [6] was over 100 µM. For the same compound, the TGI [6] was over 100 µM, the GI50 [7] was over 100 µM and the TGI [7] was over 100 µM. It also gave a GI50 [8] of over 100 µM, a TGI [8] of over 100 µM and a GI50 [9] of over 100 µM. It also gave a TGI [9] of over 100 µM, a GI50 [10] of over 100 µM and a TGI [10] of over 100 µM.
Compound `COc1c(O)cc2c(c1CC=C(C)C)OC(=O)c1c(cc(O)c(CC=C(C)C)c1O)O2` has a GI50 [2] of 4.08 µM, a TGI [2] of 7.78 µM and a GI50 [3] of 6.48 µM. It also gave a TGI [3] of 25 µM, a GI50 [4] of 3.45 µM and a TGI [4] of 8.29 µM. It also gave a GI50 [5] of 3.89 µM, a TGI [5] of 7.85 µM and a GI50 [6] of 4.47 µM. The TGI [6] was 8.71 µM, the GI50 [7] was 4.38 µM and the TGI [7] was 8.58 µM. For the same compound, the GI50 [8] was 3.95 µM, the TGI [8] was 10.5 µM and the GI50 [9] was 5.49 µM. For the same compound, the TGI [9] was 11.7 µM, the GI50 [10] was 4.06 µM and the TGI [10] was 7.67 µM.
`CC(=O)N[C@@H](Cc1ccc(OP(=O)(O)O)cc1)C(=O)N[C@H]1CCC(=O)N2CCC[C@@H](C(=O)NCc3cccc4ccccc34)N2C1=O` gave a GI50 [1] of over 25 µM, a TGI [1] of over 25 µM and a GI50 [3] of over 25 µM. The TGI [3] was over 25 µM, the GI50 [4] was over 25 µM and the TGI [4] was over 25 µM. For the same compound, the GI50 [5] was over 25 µM, the TGI [5] was over 25 µM and the GI50 [6] was over 25 µM. For the same compound, the TGI [6] was over 25 µM, the GI50 [7] was over 25 µM and the TGI [7] was over 25 µM. The GI50 [8] was over 25 µM, the TGI [8] was over 25 µM and the GI50 [9] was over 25 µM. It also gave a TGI [9] of over 25 µM, a GI50 [10] of over 25 µM and a TGI [10] of over 25 µM.
